Test [1] concerns 2nd instar larvae of Spodoptera frugiperda. Briefly: Laboratory test, 2nd instar larvae of Spodoptera frugiperda on treated soybean leaves. The class given is in vivo. The following applies: within 96 h.
Test [2] shares this test system. Briefly: Laboratory test, 2nd instar larvae of Spodoptera frugiperda on maize leaves. The class given is in vivo. The following applies: within 72 h.

`CNC(=O)c1cc(C#N)cc(C)c1NC(=O)c1cc(Br)nn1-c1ncccc1Cl` [Compound 1, 3-bromo-1-(3-chloro-2-pyridinyl)-N-[4-cyano-2-methyl-6-[(methylamino)carbonyl]phenyl]-1H-pyrazole-5-carboxamide]: in test [1], the “Concentration needed to achieve 50% mortality, relative to the concentration of Compound 2” value is on record as 4-5 times greater. With `CNC(=O)c1cc(Cl)cc(C)c1NC(=O)c1cc(Br)nn1-c1ncccc1Cl` [Compound 2, 3-bromo-N-[4-chloro-2-methyl-6-[(methylamino)carbonyl]phenyl]-1-(3-chloro-2-pyridinyl)-1H-pyrazole-5-carboxamide], in test [2], the “Concentration in leaf tissue needed to achieve 100% mortality” value is 0.037 μg per g of tissue and the “Concentration in leaf tissue resulting in 50% mortality” value is 0.033 μg per g of leaf tissue.

For the origin of these results see patent US8530382B2, “Anthranilic diamide compositions for propagule coating” (E I du Pont de Nemours and Company, priority 2009, dated 2013).
